# Results as given in patent US9670191B2, “Pyridyl-and pyrimidinyl-substituted pyrrole-, thiophene- and furane-derivatives as kinase inhibitors” (priority 2006, dated 2017).
# Counter-ions that a name gives are not always drawn.
# Biological target: Cdc7/Dbf4 (Homo sapiens (Human), UniProt O00311)
# Test: Inhibition assay of Cdc7/Dbf4 activity (Dowex resin capture, 33P-ATP, MCM2 substrate)
# Assay type: biochemical
# Details: not given
# Method: Inhibition Assay of Cdc7 Activity
# The inhibiting activity of putative Cdc7 inhibitors and the potency of selected compounds is determined through a method of assay based on the use of Dowex resin capture technology.
# The assay consists of the transfer of radioactivity labeled phosphate moiety by the kinase to an acceptor substrate. The resulting 33P-labeled product is separated from unreacted tracer, transferred into a scintillation cocktail and light emitted is measured in a scintillation counter.
# The inhibition assay of Cdc7/Dbf4 activity is performed according to the following protocol.
# The MCM2 substrate is trans-phosphorylated by the Cdc7/Dbf4 complex in the presence of ATP traced with γ^33-ATP. The reaction is stopped by addition of Dowex resin in the presence of formic acid. Dowex resin particles capture unreacted γ^33-ATP and drag it to the bottom of the well while ^33P phosphorylated MCM2 substrate remains in solution. The supernatant is collected, transferred into Optiplate plates and the extent of substrate phosphorylation is evaluated by β counting.
# The inhibition assay of Cdc7/Dbf4 activity was performed in 96 wells plate according to the following protocol.
# The solvent for test compounds contained 3% DMSO (final concentration 1%) • 10 μl substrate MCM2 (6 μM final concentration), a mixture of cold ATP (2 μM final concentration) and radioactive ATP (1/5000 molar ratio with cold ATP). • 10 μl enzyme (Cdc7/Dbf4, 2 nM final concentration) that started the reaction. The buffer of the reaction consisted in 50 mM HEPES pH 7.9 containing 15 mM MgCl2, 2 mM DTT, 3 uM NaVO3, 2 mM glycerophosphate and 0.2 mg/ml BSA. • After incubation for 60 minutes at room temperature, the reaction was stopped by adding to each well 150 μl of Dowex resin in the presence of 150 mM formic acid. After another 60 min incubation, 50 μL of suspension were withdrawn and transferred into 96-well OPTIPLATEs containing 150 μl of MicroScint 40 (Packard); after 5-10 minutes shaking the plates were read for 1 min in a Packard TOP-Count radioactivity reader.
# Experimental data were analyzed by the computer program Assay Explorer using the four parameter logistic equation: y=bottom+(top−bottom)/(1+10^((log IC50−x)*slope)) where x is the logarithm of the inhibitor concentration, y is the response; y starts at bottom and goes to top with a sigmoid shape.
# Sequence of Cdc7/Dbf4 (O00311 whole entry, looked up, species assumed): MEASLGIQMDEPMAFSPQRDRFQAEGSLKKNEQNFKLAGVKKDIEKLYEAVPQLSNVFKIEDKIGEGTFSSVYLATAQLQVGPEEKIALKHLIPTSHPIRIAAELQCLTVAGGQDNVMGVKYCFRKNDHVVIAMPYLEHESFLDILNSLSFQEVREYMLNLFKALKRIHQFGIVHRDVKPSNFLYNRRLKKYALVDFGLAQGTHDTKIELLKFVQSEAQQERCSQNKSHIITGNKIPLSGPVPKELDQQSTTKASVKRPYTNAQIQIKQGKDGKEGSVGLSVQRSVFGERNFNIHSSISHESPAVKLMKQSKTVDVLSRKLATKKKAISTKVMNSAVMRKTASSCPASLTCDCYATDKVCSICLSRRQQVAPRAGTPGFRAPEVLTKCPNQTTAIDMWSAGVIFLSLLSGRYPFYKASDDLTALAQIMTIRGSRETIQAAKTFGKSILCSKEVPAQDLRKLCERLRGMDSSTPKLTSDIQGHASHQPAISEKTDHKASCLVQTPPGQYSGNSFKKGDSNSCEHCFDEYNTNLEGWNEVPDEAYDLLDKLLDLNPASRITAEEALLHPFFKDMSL
# Sequence of Cdc7/Dbf4 (Q9UBU7 whole entry partner, looked up, species assumed): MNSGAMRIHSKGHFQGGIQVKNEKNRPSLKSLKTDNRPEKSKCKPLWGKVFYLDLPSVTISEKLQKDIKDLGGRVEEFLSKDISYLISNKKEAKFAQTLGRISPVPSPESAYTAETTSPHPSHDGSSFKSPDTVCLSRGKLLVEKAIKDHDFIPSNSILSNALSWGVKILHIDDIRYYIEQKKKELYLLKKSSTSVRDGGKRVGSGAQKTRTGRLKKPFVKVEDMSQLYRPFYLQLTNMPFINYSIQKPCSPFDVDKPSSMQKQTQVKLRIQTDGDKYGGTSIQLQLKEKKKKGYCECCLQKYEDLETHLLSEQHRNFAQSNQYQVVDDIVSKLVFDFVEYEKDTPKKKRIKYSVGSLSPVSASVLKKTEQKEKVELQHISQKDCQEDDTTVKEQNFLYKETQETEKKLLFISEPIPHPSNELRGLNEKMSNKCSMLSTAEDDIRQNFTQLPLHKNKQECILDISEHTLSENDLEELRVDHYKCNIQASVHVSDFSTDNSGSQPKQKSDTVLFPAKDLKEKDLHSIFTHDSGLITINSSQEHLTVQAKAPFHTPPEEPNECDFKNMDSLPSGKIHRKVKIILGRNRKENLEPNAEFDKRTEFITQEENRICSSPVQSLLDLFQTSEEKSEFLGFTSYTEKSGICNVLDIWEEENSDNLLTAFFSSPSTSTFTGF
row,SMILES,IC50 [nM]
1,"NC(=O)c1cc(-c2ccnc(Nc3ccccc3)n2)[nH]c1-c1ccccc1 [Compound H1, 2-Phenyl-5-(2-phenylamino-pyrimidin-4-yl)-1H-pyrrole-3-carboxylic acid amide]",1 to 100
2,"NC(=O)c1cc(-c2ccncc2F)[nH]c1-c1ccccc1 [Compound E1, 5-(3-Fluoro-pyridin-4-yl)-2-phenyl-1H-pyrrole-3-carboxylic acid amide]",1 to 100
3,"Cc1cccc(-c2[nH]c(-c3ccncc3)cc2C(N)=O)c1 [Compound A8, 5-Pyridin-4-yl-2-m-tolyl-1H-pyrrole-3-carboxylic acid amide]",1 to 100
4,"COc1ccccc1-c1[nH]c(-c2ccncc2)cc1C(N)=O [Compound A10, 2-(2-Methoxy-phenyl)-5-pyridin-4-yl-1H-pyrrole-3-carboxylic acid amide hydrochloride]",1 to 100
5,"NC(=O)c1cc(-c2ccnc(N)n2)[nH]c1-c1ccccc1 [Compound F1, 5-(2-Amino-pyrimidin-4-yl)-2-phenyl-1H-pyrrole-3-carboxylic acid amide]",1 to 100
6,"Nc1nccc(-c2cc(C(=O)NCc3ccccc3)c(-c3ccccc3)[nH]2)n1 [Compound M3, 5-(2-Amino-pyrimidin-4-yl)-2-phenyl-1H-pyrrole-3-carboxylic acid benzylamide]",1 to 100
7,"NC(=O)c1cc(-c2ccncc2)[nH]c1-c1ccc(F)cc1 [Compound A4, 2-(4-Fluoro-phenyl-5-pyridin-4-yl-1H-pyrrole-3-carboxylic acid amide hydrochloride]",1 to 100
8,"NC(=O)c1cc(-c2ccncc2)[nH]c1-c1ccccc1F [Compound A2, 2-(2-Fluoro-phenyl)-5-pyridin-4-yl-1H-pyrrole-3-carboxylic acid amide hydrochloride]",1 to 100
9,"NC(=O)c1cc(-c2ccnc(N)n2)[nH]c1-c1ccsc1 [Compound G1, 5-(2-amino-pyrimidin-4-yl)-2-thiophen-3-yl-1H-pyrrole-3-carboxylic acid amide]",1 to 100
10,"COc1ccc(-c2[nH]c(-c3ccncc3)cc2C(N)=O)cc1 [Compound A12, 2-(4-Methoxy-phenyl)-5-pyridin-4-yl-1H-pyrrole-3-carboxylic acid amide hydrochloride]",1 to 100
11,"CCn1c(-c2ccnc(N)n2)cc(C(N)=O)c1-c1ccccc1 [Compound L1, 5-(2-Amino-pyrimidin-4-yl)-1-ethyl-2-phenyl-1H-pyrrole-3-carboxylic acid amide]",1 to 100
12,"NC(=O)c1cc(-c2ccncc2)[nH]c1-c1cccc(F)c1 [Compound A3, 2-(3-Fluoro-phenyl)-5-pyridin-4-yl-1H-pyrrole-3-carboxylic acid amide]",1 to 100
13,"Cc1ccc(-c2[nH]c(-c3ccncc3)cc2C(N)=O)cc1 [Compound A9, 5-pyridin-4-yl-2-p-tolyl-1H-pyrrole-3-carboxylic acid amide]",1 to 100
14,"CC(C)NC(=O)c1cc(-c2ccnc(N)n2)[nH]c1-c1ccccc1 [Compound M2, 5-(2-Amino-pyrimidin-4-yl)-2-phenyl-1H-pyrrole-3-carboxylic acid isopropylamide]",1 to 100
15,"NC(=O)c1cc(-c2ccncc2)[nH]c1-c1cccc(Br)c1 [Compound A5, 2-(3-Bromo-phenyl-5-pyridin-4-yl-1H-pyrrole-3-carboxylic acid amide hydrochloride]",1 to 100
16,"NC(=O)c1cc(-c2ccncc2)[nH]c1-c1ccccc1 [Compound A1, 2-Phenyl-5-pyridin-4-yl-1H-pyrrole-3-carboxylic acid amide]",1 to 100
17,"COc1cccc(-c2[nH]c(-c3ccncc3)cc2C(N)=O)c1 [Compound A11, 2-(3-Methoxy-phenyl)-5-pyridin-4-yl-1H-pyrrole-3-carboxylic acid amide]",1 to 100
18,"NC(=O)c1cc(-c2ccncc2)[nH]c1-c1ccc(Br)cc1 [Compound A6, 2-(4-Bromo-phenyl)-5-pyridin-4-yl-1H-pyrrole-3-carboxylic acid amide hydrochloride]",1 to 100

# Same assay, conditions: MCM2 substrate 6 μM, ATP 2 μM, enzyme 2 nM, 60 minutes at room temperature; read-out: IC50 values on Cdc7/Dbf4
row,SMILES,IC50 [nM]
1,"NC(=O)c1cc(-c2ccncc2)[nH]c1-c1ccsc1 [Compound C1, 5-Pyridin-4-yl-2-thiophen-3-yl-1H-pyrrole-3-carboxylic acid amide]",1 to 100
2,"NC(=O)c1cc(-c2ccncc2)[nH]c1-c1ccoc1 [Compound C2, 2-Furan-3-yl-5-pyridin-4-yl-1H-pyrrole-3-carboxylic acid amide]",1 to 100
3,"Cc1cccc(-c2[nH]c(-c3ccncc3)cc2C(N)=O)c1C [Compound A20, 2-(2,3-Dimethyl-phenyl)-5-pyridin-4-yl-1H-pyrrole-3-carboxylic acid amide]",1 to 100
4,"Nc1nccc(-c2cc(C(=O)NCC3CCCCC3)c(-c3ccccc3)[nH]2)n1 [Compound M4, 5-(2-Amino-pyrimidin-4-yl)-2-phenyl-1H-pyrrole-3-carboxylic acid cyclohexylmethyl-amide]",1 to 100
5,"Cc1ccccc1-c1[nH]c(-c2ccncc2)cc1C(N)=O [Compound A7, 5-Pyridin-4-yl-2-o-tolyl-1H-pyrrole-3-carboxylic acid amide]",1 to 100
